Results: US9789096B2, “Methods and compositions for selective and targeted cancer therapy” (Board of Regents of the University of Texas System, priority 2013, dated 2017)
Read-outs that look alike come from different tables or passages of the source.

Tests used:
H1819 = experiment: Cell viability dose-response, H1819; assay type: cell-based, human; settings: Homo sapiens; for AC50: NCI-H1819, Table 8, 12-point dose-response starting at 50 micromolar
Protocol: (§1) FIG. 6A. […] Cell viability is plotted vs. compound concentration. Compound was added to cells plated at 15% confluence in 96-well plates in RPMI-1640 media supplemented with 5% Fetal Bovine Serum and 2 mM L-Glutamine. After 4 days of incubation, ATP levels were measured using Cell Titer Glo (Promega). Data are presented as the average of 2 replicates ±SEM.
(§2) Selectivity may be measured by the half maximal inhibitory concentration (IC50), which, as used herein, is a measure of the effectiveness of a compound in killing cells. This quantitative measure indicates how much of a particular compound is needed to kill a particular cell population by half (e.g., as indicated by the amount of ATP). […] The IC50 can be determined by constructing a dose-response curve. The lower the IC50, the higher the potency, and the greater the difference between IC50 values for different cell lines (e.g., sensitive lines vs. insensitive lines, and sensitive lines vs. normal lines) the greater the selectivity. […]
(§3) With this information, we synthesized and tested a series of small molecules derived in conception from the oxalamide and chromone scaffold including N-acyl ureas, as shown in Tables 6-8. Each compound was tested in a 12-point dose-response study starting at 50 micromolar and decreasing in 3-fold increments to sub-nanomolar concentrations, in duplicate. Additionally, one or more additional cell line was tested in the same way.

H2122 = experiment: Cell viability dose-response, H2122; assay type: cell-based, human; settings: for AC50: NCI-H2122, Table 8
Protocol: as §1, §2, §3

[1] = NCI-H1819, 12-point dose-response starting at 50 micromolar, 3-fold increments, in duplicate, read-out: toxicity data, H1819
[2] = Homo sapiens, NCI-H2122, 12-point dose-response starting at 50 micromolar, 3-fold increments, in duplicate, read-out: toxicity data, H2122
[3] = Homo sapiens, 12-point dose-response starting at 50 micromolar
[4] = Homo sapiens, NCI-H2122, Table 9, competitor, read-out: IC50 to H2122 cells

Compound | IC50 (H1819; [1]) [µM] | IC50 (H2122; [2]) [µM] | further results
COc1ccc(CCNC(=O)C(=O)Nc2ccc(C(=O)c3ccccc3)cc2)cc1 [SW206966-1] | ≥ 49.5 | 0.085 | –
COc1ccc(CCNC(=O)C(=O)NC2CCC2)cc1 [SW208032-1-A] | ≥ 49.5 | ≥ 49.5 | –
COc1ccc(CCNC(=O)C(=O)Nc2ccc(Br)c(Br)c2)cc1 [SW206955-1] | ≥ 49.5 | 0.421 | –
COc1ccc(CCNC(=O)C(=O)Nc2ccc(Cl)cc2Br)cc1 [SW206953-1] | 41.7 | ≥ 49.5 | –
O=c1c(Cc2ccc(F)cc2)coc2cc(OCc3cnn(-c4ccccc4)c3)ccc12 [SW209188-1] | – | – | AC50 (H1819): 49.5 µM; AC50 (H2122; [3]): 0.086 µM
COc1ccc(CCNC(=O)C(=O)Nc2ccc(C)cc2F)cc1 [SW206883-1-A] | ≥ 49.5 | 0.727 | IC50 (H2122; [4]): 0.5 µM
COc1ccc(CCNC(=O)C(=O)NCCc2ccc(OC)cc2)cc1 [SW206963-1] | ≥ 49.5 | ≥ 49.5 | –
COc1ccc(CCNC(=O)COc2ccc(Cl)cc2)cc1 [SW208038-1-A] | ≥ 49.5 | ≥ 49.5 | –
COc1ccc(CCNC(=O)C(=O)Nc2cc(Cl)cc(Cl)c2)cc1 [SW206891-1-A] | 43.8 | ≥ 49.5 | –
COc1ccc(CCNC(=O)C(=O)N2CCOCC2)cc1 [SW208044-1-A] | ≥ 49.5 | ≥ 49.5 | –
COc1ccc(CCNC(=O)C(=O)Nc2ccc(C)c(F)c2)cc1 [SW206880-1-A] | ≥ 49.5 | 0.306 | –
COc1ccc(CCNC(=O)c2ccc3ccc(Br)cc3n2)cc1 [SW208057-1-A] | 34.9 | ≥ 49.5 | –
COc1ccc(CCNC(=O)C(=O)Nc2ccc(Cl)cc2F)cc1 [SW206951-1] | ≥ 49.5 | ≥ 49.5 | –
COc1ccc(CCNC(=O)C(=O)NC2CCCC2)cc1 [SW208033-1-A] | ≥ 49.5 | ≥ 49.5 | –
COc1ccc(CCNC(=O)C(=O)Nc2ccc(Cl)cn2)cc1 [SW208123-1-A] | 46.3 | 0.348 | –
COc1ccc(CCNC(=O)C(=O)Nc2cnccc2C)cc1 [SW208134-1-A] | ≥ 49.5 | ≥ 49.5 | –
COc1ccc(CCNC(=O)C(=O)Nc2cccc(F)c2C)cc1 [SW206882-1-A] | ≥ 49.5 | ≥ 49.5 | –
O=C(NCCc1ccc(O)cc1)C(=O)Nc1ccc(Cl)cc1 [SW208023-1-A] | 7.74 | 0.257 | –
COc1ccc(CCNC(=O)C(=O)Nc2ccncc2)cc1 [SW208135-1-A] | ≥ 49.5 | ≥ 49.5 | –
COc1ccc(CCNC(=O)C(=O)Nc2cc(OC)ccc2Cl)cc1 [SW206870-1-A] | ≥ 49.5 | ≥ 49.5 | –
COc1ccc(CCNC(=O)c2cnc3ccccc3n2)cc1 [SW208051-1-A] | ≥ 49.5 | ≥ 49.5 | –
COc1ccc(CCNC(=O)C(=O)Nc2cccnc2F)cc1 [SW208133-1-A] | ≥ 49.5 | ≥ 49.5 | –

Compound | IC50 (H1819; [1]) [µM] | IC50 (H2122; [2]) [µM] | further results
COc1ccc(CCNC(=O)C(=O)Nc2cccc(Br)c2)cc1 [SW027952-2-A] | ≥ 49.5 | – | IC50 (H2122; 12-point dose-response starting at 50 micromolar, 3-fold increments, in duplicate, read-out: toxicity data, H2122): 3.1 µM
COc1ccc(CCCNC(=O)NCc2ccc(Cl)cc2)cc1 [SW208121-1-A] | 5.75 | 3.67 | –
COc1ccc(CCNC(=O)C(=O)Nc2cc(C)cc(F)c2)cc1 [SW206881-1-A] | ≥ 49.5 | 9.9 | –
COc1ccc(CCNC(=O)C(=O)Nc2cnccn2)cc1 [SW208137-1-A] | ≥ 49.5 | ≥ 49.5 | –
COc1ccc(CCNC(=O)C(=O)CNc2ccncc2)cc1 [SW208130-1-A] | ≥ 49.5 | ≥ 49.5 | –
COc1ccc(CCNC(=O)C(=O)N2CCCC2)cc1 [SW208049-1-A] | ≥ 49.5 | ≥ 49.5 | –
COc1ccc(CCNC(=O)c2cc(O)c3cccc(O)c3n2)cc1 [SW208054-1-A] | ≥ 49.5 | 46.3 | –
COc1ccc(CCNC(=O)C(=O)Nc2ccc(Cl)c(C(F)(F)F)c2)cc1 [SW206962-1] | ≥ 49.5 | 1.4 | –
COc1ccc(CCNC(=O)C(=O)NC2CCCCC2)cc1 [SW208034-1-A] | ≥ 49.5 | ≥ 49.5 | –
O=c1c(Cc2ccccc2F)coc2cc(OCc3cnn(-c4ccccc4)c3)ccc12 [SW209189-1] | – | – | AC50 (H1819): 49.5 µM; AC50 (H2122; [3]): 0.08 µM
COc1ccc(CCNC(=O)C(=O)NN2CCCCC2)cc1 [SW208129-1-A] | ≥ 49.5 | ≥ 49.5 | –
COc1ccc(CCNC(=O)Nc2ccc(Cl)cc2)cc1 [SW208045-1-A] | – | – | IC50 (H1819; NCI-H1819, read-out: toxicity data, H1819): ≥ 49.5 µM; IC50 (H2122; Homo sapiens, NCI-H2122, read-out: toxicity data, H2122): ≥ 49.5 µM
COc1ccc(CCNC(=O)C(=O)Nc2cc(F)cc(Cl)c2)cc1 [SW206861-1-A] | 44.2 | ≥ 49.5 | –
COc1ccc(CCNC(=O)C(=O)Nc2cc(F)ccc2Br)cc1 [SW206877-1-A] | ≥ 49.5 | ≥ 49.5 | –
COc1ccc(CCNC(=O)C(=O)Nc2ccc(F)c(Br)c2)cc1 [SW206878-1-A] | ≥ 49.5 | 0.384 | –
COc1ccc(CCNC(=O)C(=O)NC2CCCCCC2)cc1 [SW208035-1-A] | ≥ 49.5 | ≥ 49.5 | –
COc1ccc(CCNC(=O)C(=O)NN2CCN(C)CC2)cc1 [SW208131-1-A] | ≥ 49.5 | ≥ 49.5 | –
COc1ccc(CCNC(=O)C(=O)Nc2cccnc2C)cc1 [SW208143-1-A] | ≥ 49.5 | ≥ 49.5 | –
CCOc1ccc(CCNC(=O)C(=O)Nc2ccc(Cl)cc2)cc1 [SW208061-1-A] | ≥ 49.5 | ≥ 49.5 | –
COc1ccc(CCNC(=O)C(=O)Nc2ccc(C)c(OC)c2)cc1 [SW206969-1] | 49 | ≥ 49.5 | –
COc1ccc(CCNC(=O)Nc2ccc(OC)cc2)cc1 [SW208024-1-A] | ≥ 49.5 | ≥ 49.5 | –
COc1ccc(CCNC(=O)c2cc(OC)c3ccccc3n2)cc1 [SW208053-1-A] | 32 | 45.9 | –

Compound | IC50 (H1819; [1]) [µM] | IC50 (H2122; [2]) [µM] | further results
COc1ccc(CCNC(=O)C(=O)Nc2cc(C)cnc2Cl)cc1 [SW208144-1-A] | ≥ 49.5 | ≥ 49.5 | –
COc1ccc(CCNC(=O)c2ccc3ccccc3n2)cc1 [SW208052-1-A] | ≥ 49.5 | ≥ 49.5 | –
COc1ccc(CCNC(=O)C(=O)N(C)c2cccc(F)c2)cc1 [SW208028-1-A] | ≥ 49.5 | ≥ 49.5 | –
COc1ccc(CCNC(=O)C(=O)Nc2cc(Cl)ccc2C)cc1 [SW206866-1-A] | ≥ 49.5 | ≥ 49.5 | –
COc1ccc(CCNC(=O)c2ccc3cccc(F)c3n2)cc1 [SW208055-1-A] | ≥ 49.5 | ≥ 49.5 | –
COc1ccc(CCNC(=O)C(=O)Nc2c(C)cccc2Cl)cc1 [SW206868-1-A] | ≥ 49.5 | ≥ 49.5 | –
COc1ccc(CCNC(=O)C(=O)Nc2cc(F)ccc2Cl)cc1 [SW206862-1-A] | ≥ 49.5 | ≥ 49.5 | –
COc1ccc(CCNC(=O)C(=O)Nc2ccc(Cl)c(C#N)c2)cc1 [SW206959-1] | ≥ 49.5 | 0.398 | IC50 (H2122; [4]): 0.182 µM
COc1ccc(CCNC(=O)C(=O)Nc2cc(Cl)cc(C(F)(F)F)c2)cc1 [SW206869-1-A] | ≥ 49.5 | ≥ 49.5 | –
COc1ccc(CNC(=O)Nc2ccc(Cl)cc2)cc1 [SW208046-1-A] | ≥ 49.5 | ≥ 49.5 | –
COc1ccc(CCNC(=O)C(=O)Nc2cc(F)c(Br)c(F)c2)cc1 [SW206872-1-A] | ≥ 49.5 | ≥ 49.5 | –
COc1ccc(CNC(=O)COc2ccc(Cl)cc2)cc1 [SW208040-1-A] | ≥ 49.5 | ≥ 49.5 | –
COc1ccc(CCNC(=O)NC(=O)c2ccccc2)cc1 [SW208142-1-A] | ≥ 49.5 | 1.09 | –
COc1ccc(CCNC(=O)C(=O)Nc2cc(F)ccc2F)cc1 [SW206884-1-A] | ≥ 49.5 | ≥ 49.5 | –
COc1ccc(CCNC(=O)C(=O)Nc2ccnc(C)c2)cc1 [SW208138-1-A] | ≥ 49.5 | ≥ 49.5 | –
COc1ccc(CCCNC(=O)C(=O)c2ccccc2)cc1 [SW208152-1-A] | ≥ 49.5 | 15.2 | –
Cc1ccc(CCNC(=O)C(=O)Nc2ccc(Cl)cc2)cc1 [SW208036-1-A] | ≥ 49.5 | ≥ 49.5 | –
Cc1ccccc1CCNC(=O)C(=O)Nc1ccc(Cl)cc1 [SW208027-1-A] | ≥ 49.5 | ≥ 49.5 | –
COc1ccc(CCN(C)C(=O)C(=O)Nc2ccc(Cl)cc2)cc1 [SW208153-1-A] | ≥ 49.5 | 10.5 | –
COc1ccc(CCNC(=O)C(=O)c2ccccc2)cc1 [SW208145-1-A] | ≥ 49.5 | ≥ 49.5 | –
COc1ccc(CCCNC(=O)Nc2ccc(OC)cc2)cc1 [SW208029-1-A] | ≥ 49.5 | ≥ 49.5 | –
O=C(NCCc1ccccc1)C(=O)Nc1ccc(Cl)cc1 [SW113361-2-A] | ≥ 49.5 | ≥ 49.5 | –
